PMC9951859, “Investigation of α,ω-Disubstituted Polyamine-Cholic Acid Conjugates Identifies Hyodeoxycholic and Chenodeoxycholic Scaffolds as Non-Toxic, Potent Antimicrobials” (Antibiotics, 2023)
pIC50: −log10 of the molar value.

Experiments:
[1] = Cytotoxicity assay on HEK293; format: cell-based, human; settings: human, HEK293 human embryonic kidney cells; concentration at 50% cytotoxicity on HEK293; mean (n = 2); top dose tested 32 μg/mL
Method: (§1) Cytotoxicity assays were conducted using the protocols previously reported.

[2] = test system: Staphylococcus aureus ATCC 43300 (MRSA); assay: Antimicrobial MIC assay (CO-ADD) against S. aureus MRSA; format: cell-based; settings: Staphylococcus aureus, read-out: MIC S.a.
Text: (§2) Antimicrobial evaluation against S. aureus (MRSA) (ATCC 43300), E. coli (ATCC 25922), K. pneumoniae (ATCC 700603), A. baumannii (ATCC 19606), C. albicans (ATCC 90028), and C. neoformans (ATCC 208821) was undertaken at the Community for Open Antimicrobial Drug Discovery at The University of Queensland (Australia) according to their standard protocols as reported previously.

[3] = test system: Cryptococcus neoformans ATCC 208821; assay: Antimicrobial MIC assay (CO-ADD) against C. neoformans; format: cell-based; settings: Cryptococcus neoformans, ATCC208821, read-out: MIC C.n.
Text: as §2

[4] = test system: Escherichia coli ATCC 25922; assay: Antimicrobial MIC assay (CO-ADD) against E. coli; format: cell-based; settings: Escherichia coli, ATCC25922, read-out: MIC E.c.
Text: as §2

E. coli ATCC 25922 = assay: Antibiotic enhancement of erythromycin; format: cell-based, Escherichia coli; settings: erythromycin at 2 μg/mL
Method: (§3) Restoring enhancer concentrations were determined with an inoculum of 5 × 10^5 CFU in […] of MH broth containing two-fold serial dilutions of each derivative in the presence of either doxycycline or erythromycin at 2 μg/mL. […] These measurements were independently repeated in triplicate.

[5] = test system: Pseudomonas aeruginosa ATCC 27853; assay: Antimicrobial MIC assay (CO-ADD) against P. aeruginosa; format: cell-based; settings: Pseudomonas aeruginosa, ATCC27853, read-out: MIC P.a.
[6] = test system: Candida albicans ATCC 90028; assay: Antimicrobial MIC assay (CO-ADD) against C. albicans; format: cell-based; settings: Candida albicans, ATCC90028, read-out: MIC C.a., Candida albicans ATCC 90028; mean (n = 2)
Text: as §2

[7] = test system: Acinetobacter baumannii ATCC 19606; assay: Antimicrobial MIC assay (CO-ADD) against A. baumannii; format: cell-based; settings: Acinetobacter baumannii, ATCC19606, read-out: MIC A.b.
Text: as §2

[8] = test system: Klebsiella pneumoniae ATCC 700603; assay: Antimicrobial MIC assay (CO-ADD) against K. pneumoniae; format: cell-based; settings: Klebsiella pneumoniae, ATCC700603, read-out: MIC K.p.
Text: as §2

human red blood cells = assay: Hemolytic assay; format: cell-based; settings: concentration at 10% hemolytic activity on human red blood cells; mean (n = 2); top dose tested 32 μg/mL
Method: Hemolytic assays were conducted using the protocols previously reported.

P. aeruginosa ATCC 27853 = assay: Antibiotic enhancement of doxycycline; format: cell-based, Pseudomonas aeruginosa; settings: doxycycline at 2 μg/mL
Method: as §3

[9] = test system: HEK293 human embryonic kidney cells; assay: Cytotoxicity assay on HEK293; format: cell-based; settings: concentration at 50% cytotoxicity on HEK293; mean (n = 2); top dose tested 32 μg/mL
Method: as §1

SMILES | pIC50 [1] | MIC [2] [µM] | MIC [3] [µM] | MIC [4] [µM] | enhancement of antibiotic activity of erythromycin (E. coli ATCC 25922) | MIC [5] [µM] | MIC [6] [µM] | MIC [7] [µM] | MIC [8] [µM] | Hemolysis (HC10) (human red blood cells) [µM] | enhancement of antibiotic activity of doxycycline (P. aeruginosa ATCC 27853) | Cytotoxicity (IC50) [9]
C[C@H](CCC(=O)NCCCNCCCCNCCCNC(=O)CC[C@@H](C)[C@H]1CC[C@H]2[C@@H]3C[C@H](O)[C@@H]4C[C@H](O)CC[C@]4(C)[C@H]3CC[C@]12C)[C@H]1CC[C@H]2[C@@H]3C[C@H](O)[C@@H]4C[C@H](O)CC[C@]4(C)[C@H]3CC[C@]12C.O=C(O)C(F)(F)F.O=C(O)C(F)(F)F [Compound 7a, N^1,N^4-Bis(3-((R)-4-((3R,5R,6S,8S,9S,10R,13R,14S,17R)-3,6-dihydroxy-10,13-dimethylhexadecahydro-1H-cyclopenta[a]phenanthren-17-yl)pentanamido)propyl)butane-1,4-diaminium 2,2,2-trifluoroacetate] | < 4.57 | 3.4 | ≤ 0.21 | > 27 | No enhancement was observed | > 27 | 14 | > 27 | > 27 | >27 | No enhancement was observed | –
C[C@H](CCC(=O)NCCCNCCCCCCCNCCCNC(=O)CC[C@@H](C)[C@H]1CC[C@H]2[C@@H]3C[C@H](O)[C@@H]4C[C@H](O)CC[C@]4(C)[C@H]3CC[C@]12C)[C@H]1CC[C@H]2[C@@H]3C[C@H](O)[C@@H]4C[C@H](O)CC[C@]4(C)[C@H]3CC[C@]12C.O=C(O)C(F)(F)F.O=C(O)C(F)(F)F [Compound 7c, N^1,N^7-Bis(3-((R)-4-((3R,5R,6S,8S,9S,10R,13R,14S,17R)-3,6-dihydroxy-10,13-dimethylhexadecahydro-1H-cyclopenta[a]phenanthren-17-yl)pentanamido)propyl)heptane-1,7-diaminium 2,2,2-trifluoroacetate] | < 4.59 | ≤ 0.21 | ≤ 0.21 | > 26 | No enhancement was observed | > 26 | 13 | > 26 | > 26 | >26 | No enhancement was observed | –
C[C@H](CCC(=O)NCCCNCCCCCCCCNCCCNC(=O)CC[C@@H](C)[C@H]1CC[C@H]2[C@@H]3C[C@H](O)[C@@H]4C[C@H](O)CC[C@]4(C)[C@H]3CC[C@]12C)[C@H]1CC[C@H]2[C@@H]3C[C@H](O)[C@@H]4C[C@H](O)CC[C@]4(C)[C@H]3CC[C@]12C.O=C(O)C(F)(F)F.O=C(O)C(F)(F)F [Compound 7d, N^1,N^8-Bis(3-((R)-4-((3R,5R,6S,8S,9S,10R,13R,14S,17R)-3,6-dihydroxy-10,13-dimethylhexadecahydro-1H-cyclopenta[a]phenanthren-17-yl)pentanamido)propyl)octane-1,8-diaminium 2,2,2-trifluoroacetate] | < 4.59 | ≤ 0.2 | ≤ 0.2 | > 26 | No enhancement was observed | > 26 | 13 | > 26 | > 26 | >26 | No enhancement was observed | –
C[C@H](CCC(=O)NCCCNCCCCCCNCCCNC(=O)CC[C@@H](C)[C@H]1CC[C@H]2[C@@H]3[C@@H](O)C[C@@H]4C[C@H](O)CC[C@]4(C)[C@H]3CC[C@]12C)[C@H]1CC[C@H]2[C@@H]3[C@@H](O)C[C@@H]4C[C@H](O)CC[C@]4(C)[C@H]3CC[C@]12C.O=C(O)C(F)(F)F.O=C(O)C(F)(F)F [Compound 8b, N^1,N^6-Bis(3-((R)-4-((3R,5S,7S,8R,9S,10S,13R,14S,17R)-3,7-dihydroxy-10,13-dimethylhexadecahydro-1H-cyclopenta[a]phenanthren-17-yl)pentanamido)propyl)hexane-1,6-diaminium 2,2,2-trifluoroacetate] | < 4.57 | 1.7 | > 27 | > 26 | – | > 26 | 27 | > 26 | > 26 | 11 | – | –
C[C@H](CCC(=O)NCCCNCCCCCCCNCCCNC(=O)CC[C@@H](C)[C@H]1CC[C@H]2[C@@H]3[C@@H](O)C[C@@H]4C[C@H](O)CC[C@]4(C)[C@H]3CC[C@]12C)[C@H]1CC[C@H]2[C@@H]3[C@@H](O)C[C@@H]4C[C@H](O)CC[C@]4(C)[C@H]3CC[C@]12C.O=C(O)C(F)(F)F.O=C(O)C(F)(F)F [Compound 8c, N^1,N^7-Bis(3-((R)-4-((3R,5S,7S,8R,9S,10S,13R,14S,17R)-3,7-dihydroxy-10,13-dimethylhexadecahydro-1H-cyclopenta[a]phenanthren-17-yl)pentanamido)propyl)heptane-1,7-diaminium 2,2,2-trifluoroacetate] | < 4.59 | ≤ 0.21 | 26 | > 26 | – | > 26 | 13 | > 26 | > 26 | 11 | – | –
C[C@H](CCC(=O)NCCCNCCCCCCCCNCCCNC(=O)CC[C@@H](C)[C@H]1CC[C@H]2[C@@H]3[C@@H](O)C[C@@H]4C[C@H](O)CC[C@]4(C)[C@H]3CC[C@]12C)[C@H]1CC[C@H]2[C@@H]3[C@@H](O)C[C@@H]4C[C@H](O)CC[C@]4(C)[C@H]3CC[C@]12C.O=C(O)C(F)(F)F.O=C(O)C(F)(F)F [Compound 8d, N^1,N^8-Bis(3-((R)-4-((3R,5S,7S,8R,9S,10S,13R,14S,17R)-3,7-dihydroxy-10,13-dimethylhexadecahydro-1H-cyclopenta[a]phenanthren-17-yl)pentanamido)propyl)octane-1,8-diaminium 2,2,2-trifluoroacetate] | < 4.59 | ≤ 0.2 | 13 | > 26 | – | > 26 | 26 | > 26 | > 26 | 5.6 | – | –
C[C@H](CCC(=O)NCCCNCCCCCCCCCCNCCCNC(=O)CC[C@@H](C)[C@H]1CC[C@H]2[C@@H]3[C@@H](O)C[C@@H]4C[C@H](O)CC[C@]4(C)[C@H]3CC[C@]12C)[C@H]1CC[C@H]2[C@@H]3[C@@H](O)C[C@@H]4C[C@H](O)CC[C@]4(C)[C@H]3CC[C@]12C.O=C(O)C(F)(F)F.O=C(O)C(F)(F)F [Compound 8e, N^1,N^10-Bis(3-((R)-4-((3R,5S,7S,8R,9S,10S,13R,14S,17R)-3,7-dihydroxy-10,13-dimethylhexadecahydro-1H-cyclopenta[a]phenanthren-17-yl)pentanamido)propyl)decane-1,10-diaminium 2,2,2-trifluoroacetate] | < 4.60 | ≤ 0.2 | 1.6 | > 25 | – | > 25 | 3.2 | > 25 | > 25 | 3.3 | – | –
C[C@H](CCC(=O)NCCCNCCCCCCCCCCCCNCCCNC(=O)CC[C@@H](C)[C@H]1CC[C@H]2[C@@H]3[C@@H](O)C[C@@H]4C[C@H](O)CC[C@]4(C)[C@H]3CC[C@]12C)[C@H]1CC[C@H]2[C@@H]3[C@@H](O)C[C@@H]4C[C@H](O)CC[C@]4(C)[C@H]3CC[C@]12C.O=C(O)C(F)(F)F.O=C(O)C(F)(F)F [Compound 8f, N^1,N^12-Bis(3-((R)-4-((3R,5S,7S,8R,9S,10S,13R,14S,17R)-3,7-dihydroxy-10,13-dimethylhexadecahydro-1H-cyclopenta[a]phenanthren-17-yl)pentanamido)propyl)dodecane-1,12-diaminium 2,2,2-trifluoroacetate] | 5.08 | ≤ 0.19 | ≤ 0.19 | > 25 | – | > 25 | 3.1 | > 25 | > 25 | 1.4 | – | exhibiting cytotoxic properties
C[C@H](CCC(=O)NCCCNCCCCNCCCNC(=O)CC[C@@H](C)[C@H]1CC[C@H]2[C@@H]3[C@H](O)C[C@@H]4C[C@H](O)CC[C@]4(C)[C@H]3CC[C@]12C)[C@H]1CC[C@H]2[C@@H]3[C@H](O)C[C@@H]4C[C@H](O)CC[C@]4(C)[C@H]3CC[C@]12C.O=C(O)C(F)(F)F.O=C(O)C(F)(F)F [Compound 9a, N^1,N^4-Bis(3-((R)-4-((3R,5S,7R,8R,9S,10S,13R,14S,17R)-3,7-dihydroxy-10,13-dimethylhexadecahydro-1H-cyclopenta[a]phenanthren-17-yl)pentanamido)propyl)butane-1,4-diaminium 2,2,2-trifluoroacetate] | 4.57 | ≤ 0.21 | ≤ 0.21 | 6.8 | – | > 27 | ≤ 0.21 | 27 | > 27 | – | – | devoid of cytotoxicity
